In patent US20170188606A1, “COMPOUNDS, COMPOSITIONS, AND METHODS FOR REDUCING OR E[…] TASTE” (Chromocell Corporation, priority 2014, published 2017):

Legend:
[1] = tested on: bitter taste receptor (T2R); settings: Compound 1 3.2 mM in the absence of rebaudioside A; vs vehicle control
Protocol: Both the rebaudioside A and Compound 1 solutions were prepared in a standard HEPES buffer solution. Rebaudioside A was evaluated at a concentration of 825 μM and Compound 1 was evaluated at 3.2 mM (in the presence and absence of 825 μM rebaudioside A) and compared to vehicle control (HEPES buffer solution). Cells were incubated with a calcium responsive dye for one hour at 37 C and then exposed to rebaudioside A, Compound 1 (in the presence and absence of 825 μM rebaudioside A) and vehicle control. Change in fluorescence prior to compound addition and after compound addition was monitored for five minutes using a Hamamatsu Functional Drug Screening System (FDSS) 6000. The difference in fluorescence response over vehicle control was calculated using maximal cellular responses for each compound.

sweetness perception = assay: Inherent sweetness assessment using 2-AFC method vs 1.5% sucrose; format: in vivo, human; settings: for % correct: % needed 67%; for x (choosing Sample 1 as sweeter): n 36
Protocol: Sucrose solutions were prepared by adding sucrose to water to achieve the desired concentrations. Compounds were first prepared as 250-fold concentrated stocks in a 50% ethanol (200 proof), 50% water solution. These concentrated stocks were then diluted in water to achieve a final ethanol concentration of 0.2%. The control solutions were also normalized to 0.2% ethanol.
Compound 1 was evaluated in an aqueous solution for sweetness perception in a 2-AFC test. This test was a double-blinded, randomized study where taste panelists evaluate a pair of solutions one at a time for sweetness. Panelists were instructed not to eat or drink (except water) for at least one hour before the test. During the test, panelists were instructed to sip each sample, swirl it around their mouth and then expectorate. After tasting each sample in the pair, panelists were instructed to record the sample that is “sweeter” in taste. Panelists cleansed their palates by rinsing with water, eating a cracker and waiting for an interval of about 5 minutes. Each pair was tasted twice. All samples were tasted at ambient temperatures. Compound 1 (at various concentrations) was evaluated in comparison to the control, 1.5% sucrose. The flavor and extract manufacturers association (FEMA) characterizes any compound that has a sweetness intensity greater than that of 1.5% in a water base as inherently sweet.
Control Sample (Sample 1): 1.5% sucrose in water
Test Samples (Sample 2): • 10 μg/mL (10 ppm) Compound 1 in 0.2% ethanol in water • 2 μg/mL (2 ppm) Compound 1 in 0.2% ethanol in water • 0.5 μg/mL (500 ppb) Compound 1 in 0.2% ethanol in water
Eighteen subjects completed two replicates of a 2-AFC test for sweetness. Thirty three responses indicated the Control Sample was sweeter for each of the test samples evaluated. Three responses indicated the Test Sample was sweeter for each of the test samples evaluated. Using a beta binomial distribution, p=0.000 (two-sided alternative).

[2] = tested on: bitter taste in grape-flavored cough syrup (Robitussin Cough and Cold CF); assay: Cough syrup 2-AFC analysis (Example 3); format: in vivo, Humans; settings: 0.1 ppm in cough syrup; testers n=7
Protocol: (§1) Compound 1 was screened for a reduction of bitter taste due to a bitter tastant in children's grape flavored cough syrup (Robitussin Cough and Cold CF™, Lot #: R10494, Exp. 07/15). Compound 1 was solubilized in […] (PG), dosed into the cough syrup, and placed in 3 mL amounts in sample vials. Control samples contained an equal amount of PG to samples containing Compound 1. Testers (n=7) were asked to use a plastic transfer pipette for tasting, rinsing with water between samples and choosing the less bitter sample via the two alternative forced choice (2-AFC) method.

[3] = tested on: bitter taste in grape-flavored cough syrup (Robitussin Cough and Cold CF); assay: Cough syrup 2-AFC analysis with 50 ppb and 100 ppb (Example 4); format: in vivo, Humans; settings: for Cmpd. Chosen Overall: chosen as less bitter, n=11
Protocol: as §1, with “2.5” for “3”, “vials to afford 50 ppb or 100 ppb Compound 1 in the samples.” for “vials.”, “(n=11)” for “(n=7)”

[4] = tested on: bitter taste of Orange VitaminWater (Stevia Leaf Extract, rebaudioside A); assay: Descriptive analysis (DA) panel taste test, Orange VitaminWater
[5] = tested on: bitter taste of rebaudioside A; assay: Descriptive analysis (DA) panel taste test, aqueous rebaudioside A
[6] = tested on: bitterness of 500 ppm RebA; assay: Discrimination testing with sureness (Latin square 2-AFC) and R-index analysis, aqueous RebA; format: in vivo, Humans; settings: 5 ppm in 500 ppm RebA, Discrim. Sureness, N 34, vs control
From the text: The discrimination testing with sureness extends the simple yes/no task of discrimination test in a signal detection procedure to include a sureness rating scale. The discrimination test principle is based on two alternative forced choice (2-AFC) manner, in this methodology, panelists are presented with multiple samples, in which one sample is a control, and the other sampled are test variants. A blind control is included in the test variants along with a known control. Panelists are asked to first discriminate between the known control and a variant by identifying which the sample is less bitter. Second, panelists rate their sureness of their response (e.g., sure, unsure, or guess).
To minimize bias and prevent panelist expectation of sample order, a Latin square randomization design is utilized. The samples within a set will be randomized and the sets are randomized via Latin square. The number of presentations is equally distributed. Each of the test samples is evaluated against a negative control sample to calculate R-index score and associated p-value. […] R-index is utilized to indicate the degree of difference between the test and the control sample. […]
The blocker candidates were evaluated in a “sip and spit” format using this methodology and analysis and were the results of at least 30 observations (e.g., 15 panelists and 2 replications or 10 panelists 3 replications).

[7] = Compound 1 @ 0.5 μg/mL in water vs 1.5% sucrose
[8] = Compound 1 @ 2 μg/mL in water vs 1.5% sucrose
[9] = Compound 1 @ 10 μg/mL in water vs 1.5% sucrose
[10] = Panel A, Orange Vitamin Water Zero + Compound 1 @5 ppm, 15 cm scale
[11] = Panel B, fully solubilized, Orange VitaminWater (head: 500 ppm Reb-A) + Compound1 @0.25 ppm, 0.2% ethanol
[12] = Panel A, 500 ppm RebA + Compound 1 @7.5 ppm in water, 15 cm scale
[13] = Panel B, fully solubilized, 500 ppm Reb-A + Compound 1 @0.3 ppm, aqueous, 0.2% ethanol

## CN[C@@H](Cc1c[nH]c2ccccc12)C(=O)O [Compound 1, N-methyl-L-tryptophan]
[1]
  fluorescent response from Compound 1 on its own: not significantly different from vehicle control
Sweetness perception; [7]
  d′: 1.956
  % correct: 92%
  x (choosing Sample 1 as sweeter): 33
Sweetness perception; [8]
  d′: 1.956
  % correct: 92%
  x (choosing Sample 1 as sweeter): 33
Sweetness perception; [9]
  d′: 1.956
  % correct: 92%
  x (choosing Sample 1 as sweeter): 33
Sweetness perception; concentrations up to 10 μg/mL (10 ppm), 0.2% ethanol in water, vs 1.5% sucrose
  inherent sweetness: do not elicit inherent sweetness
[2]
  Compound Chosen as Less Bitter: 5
  Control Chosen as Less Bitter: 1
  No Choice Made: 1
[3]; 50 ppb in cough syrup
  Chosen if 1st in Pair: 5/6
  Chosen if 2nd in Pair: 2/5
  Chosen in 1st Pair: 5/6
  Chosen in 2nd Pair: 2/5
  Cmpd. Chosen Overall: 7/11
[3]; 100 ppb in cough syrup
  Chosen if 1st in Pair: 4/5
  Chosen if 2nd in Pair: 3/6
  Chosen in 1st Pair: 3/5
  Chosen in 2nd Pair: 4/6
  Cmpd. Chosen Overall: 7/11
[4]; [10]
  Bit Aft: 2.94
  Bitter: 4.97
  HPB: 6.83
  Licorice: 2.74
  Swt Aft: 3.89
  Swt Linger: 1.99
[4]; [11]
  Bitter: 3.9
  HPB: 5.4
[5]; [12]
  Bitter: 5.32
  Bitter Aft: 3.18
  HPB: 7.70
  Licorice: 6.58
  Sweet Aft: 4.71
  Sweet Linger: 2.55
[5]; [13]
  Bitter: 3.4
  Bitter Aft: 1.6
  HPB: 5
[6]
  R-index: 63.3%
